Data taken from ChEMBL document CHEMBL4819024, “Synthesis and evaluation of andrographolide derivatives as potent anti-osteoporosis agents in vitro and in vivo” (Eur J Med Chem, 2021).
The source made the active and inactive calls.

Experiments:
[1] = tested on: BMMC; assay: Cytotoxicity against C57BL/6 mouse BMM cells assessed as reduction in cell viability at 30 uM measured after 48 hrs in presence of M-CSF by CCK8 assay; format: cell-based
[2] = tested on: BMMC; assay: Anti-osteoporosis activity in C57BL/6 mouse BMM cells assessed as inhibition of M-CSF/RANKL-induced osteoclastogenesis by measuring reduction in size and number of osteoclasts incubated for 5 days with media replenishment for every 48 hrs measured by TRAP-staining based analysis; format: functional, cell-based; settings: dose 0.03-10 µM, time 5.0 day
[3] = tested on: BMMC; assay: Anti-osteoporosis activity in C57BL/6 mouse BMM cells assessed as inhibition of M-CSF/RANKL-induced bone resorption at 10 uM after 48 hrs by hydroxyapatite assay using Leica inverted microscope; format: functional; settings: C57BL/6, BMMC
[4] = tested on: BMMC; assay: Downregulation of osteoclastogenesis-associated gene expression in C57BL/6 mouse BMM cells assessed as inhibition of M-CSF/RANKL-induced CTSK expression at 5 uM after 5 days by qRT-PCR analysis; format: functional, cell-based; settings: time 5.0 day
[5] = tested on: BMMC; assay: Downregulation of osteoclastogenesis-associated gene expression in C57BL/6 mouse BMM cells assessed as inhibition of M-CSF/RANKL-induced NFATc1 expression at 5 uM after 5 days by qRT-PCR analysis; format: functional, cell-based; settings: time 5.0 day
[6] = Inhibition of RANKL-induced NFkappaB signaling pathway in mouse RAW264.7 cells assessed as reduction in NFkappaB p65 phosphorylation preincubated for 4 hrs followed by RANKL stimulation for 10 mins and measured by Western blot analysis; format: cell-based; settings: dose 1-10 µM, time 250.0 min
[7] = tested on: RAW264.7; assay: Effect on NFkappaB p65 expression in RANKL-stimulated mouse RAW264.7 cells at 1 to 10 uM preincubated for 4 hrs followed by RANKL stimulation for 10 mins and measured by Western blot analysis; format: functional; settings: dose 1-10 µM, time 250.0 min
[8] = tested on: RAW264.7; assay: Inhibition of RANKL-induced NFkappaB signaling pathway in mouse RAW264.7 cells assessed as reduction in IkappaB alpha phosphorylation at 10 uM preincubated for 4 hrs followed by RANKL stimulation for 10 mins and measured by Western blot analysis; format: cell-based; settings: time 250.0 min
[9] = tested on: RAW264.7; assay: Inhibition of RANKL-induced NFkappaB signaling pathway in mouse RAW264.7 cells assessed as reduction in IkappaB alpha degradation at 10 uM preincubated for 4 hrs followed by RANKL stimulation for 10 mins and measured by Western blot analysis; format: cell-based; settings: time 250.0 min
[10] = molecular target: Transcription factor p65 (Mus musculus) (UniProt Q04207); assay: Inhibition of RANKL-induced NFkappaB signaling pathway in mouse RAW264.7 cells assessed as reduction in NFkappaB p65 nuclear translocation at 10 uM preincubated for 4 hrs followed by RANKL stimulation for 10 mins and measured by DAPI staining based immunofluorescence analysis; format: cell-based; settings: time 250.0 min
Sequence of Transcription factor p65 (Mus musculus) (Q04207 whole entry): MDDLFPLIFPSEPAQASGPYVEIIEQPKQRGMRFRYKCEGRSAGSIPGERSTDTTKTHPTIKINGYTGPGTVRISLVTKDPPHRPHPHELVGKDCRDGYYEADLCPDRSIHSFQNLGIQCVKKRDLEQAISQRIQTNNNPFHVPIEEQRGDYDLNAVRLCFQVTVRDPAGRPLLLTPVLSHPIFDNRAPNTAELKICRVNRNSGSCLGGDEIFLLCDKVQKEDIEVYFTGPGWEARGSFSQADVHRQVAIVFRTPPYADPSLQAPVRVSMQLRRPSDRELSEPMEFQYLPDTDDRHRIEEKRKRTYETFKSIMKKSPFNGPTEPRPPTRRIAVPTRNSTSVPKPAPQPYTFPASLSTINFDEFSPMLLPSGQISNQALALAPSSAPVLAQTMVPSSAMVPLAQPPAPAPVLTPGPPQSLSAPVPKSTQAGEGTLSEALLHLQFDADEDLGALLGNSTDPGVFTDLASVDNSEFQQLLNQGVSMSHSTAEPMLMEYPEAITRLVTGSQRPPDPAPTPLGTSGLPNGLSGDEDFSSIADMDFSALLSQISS

[11] = tested on: C3H 10T1/2; assay: Induction of osteoblast differentiation in mouse C3H10T1 /2 cells assessed as increase in ALP expression at 1 to 10 uM measured after 7 days by ALP staining based assay; format: functional, cell-based; settings: dose 1-10 µM, time 7.0 day
[12] = tested on: Mus musculus; assay: Antiosteoporotic activity against OVX-induced bone loss C57BL/6 mouse model assessed as increase in trabecular bone mass in femoral metaphysis at 10 mg/kg, po QD for 4 weeks by microCT analysis; format: functional, organism-based; settings: dose 10.0 mg/kg/day
[13] = tested on: Mus musculus; assay: Antiosteoporotic activity against OVX-induced bone loss C57BL/6 mouse model assessed as increase in trabecular thickness in femoral metaphysis at 10 mg/kg, po QD for 4 weeks; format: functional, organism-based; settings: dose 10.0 mg/kg/day
[14] = tested on: Mus musculus; assay: Antiosteoporotic activity against OVX-induced bone loss C57BL/6 mouse model assessed as increase in trabecular number in femoral metaphysis at 10 mg/kg, po QD for 4 weeks; format: functional, organism-based; settings: dose 10.0 mg/kg/day
[15] = tested on: Mus musculus; assay: Antiosteoporotic activity against OVX-induced bone loss C57BL/6 mouse model assessed as decrease in trabecular spacing in femoral metaphysis at 10 mg/kg, po QD for 4 weeks; format: functional, organism-based; settings: dose 10.0 mg/kg/day
[16] = tested on: Mus musculus; assay: Antiosteoporotic activity against OVX-induced bone loss C57BL/6 mouse model assessed as decrease in PINP secretion in serum at 10 mg/kg, po QD for 4 weeks; format: functional, organism-based; settings: dose 10.0 mg/kg/day
[17] = tested on: Mus musculus; assay: Antiosteoporotic activity against OVX-induced bone loss C57BL/6 mouse model assessed as decrease in ACP5 level in serum at 10 mg/kg, po QD for 4 weeks; format: functional, organism-based; settings: dose 10.0 mg/kg/day
[18] = molecular target: MAP kinase p38 (Mus musculus) (UniProt P47811+O08911+Q9WUI1+Q9Z1B7); assay: Inhibition of RANKL-induced p38 phosphorylation in mouse RAW264.7 cells at 1 to 10 uM pretreated for 4 hrs prior to RANKL stimulation for 20 mins by western blot analysis; format: cell-based; settings: dose 1-10 µM, time 260.0 min
[19] = tested on: RAW264.7; assay: Inhibition of RANKL-induced ERK phosphorylation in mouse RAW264.7 cells at 1 to 10 uM pretreated for 4 hrs prior to RANKL stimulation for 20 mins by western blot analysis; format: cell-based; settings: dose 1-10 µM, time 260.0 min
[20] = molecular target: c-Jun N-terminal kinase (Mus musculus) (UniProt Q91Y86+Q9WTU6+Q61831); assay: Inhibition of RANKL-induced JNK phosphorylation in mouse RAW264.7 cells at 1 to 10 uM pretreated for 4 hrs prior to RANKL stimulation for 20 mins by western blot analysis; format: cell-based; settings: dose 1-10 µM, time 260.0 min
Sequence of c-Jun N-terminal kinase (Mus musculus) (Q61831 whole entry, looked up): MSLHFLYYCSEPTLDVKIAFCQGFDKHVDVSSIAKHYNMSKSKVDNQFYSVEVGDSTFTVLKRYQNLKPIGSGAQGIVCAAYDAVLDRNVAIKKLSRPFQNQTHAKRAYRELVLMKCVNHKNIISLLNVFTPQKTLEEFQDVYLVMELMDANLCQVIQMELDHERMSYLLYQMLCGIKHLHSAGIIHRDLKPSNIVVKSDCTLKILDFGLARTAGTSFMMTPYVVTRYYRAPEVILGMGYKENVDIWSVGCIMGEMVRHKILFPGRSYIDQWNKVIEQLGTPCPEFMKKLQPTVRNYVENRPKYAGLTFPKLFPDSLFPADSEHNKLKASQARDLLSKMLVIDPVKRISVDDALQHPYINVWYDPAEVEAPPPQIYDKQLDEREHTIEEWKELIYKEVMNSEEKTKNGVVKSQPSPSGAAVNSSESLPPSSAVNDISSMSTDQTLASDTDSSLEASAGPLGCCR
Sequence of c-Jun N-terminal kinase (Mus musculus) (Q91Y86 whole entry, looked up): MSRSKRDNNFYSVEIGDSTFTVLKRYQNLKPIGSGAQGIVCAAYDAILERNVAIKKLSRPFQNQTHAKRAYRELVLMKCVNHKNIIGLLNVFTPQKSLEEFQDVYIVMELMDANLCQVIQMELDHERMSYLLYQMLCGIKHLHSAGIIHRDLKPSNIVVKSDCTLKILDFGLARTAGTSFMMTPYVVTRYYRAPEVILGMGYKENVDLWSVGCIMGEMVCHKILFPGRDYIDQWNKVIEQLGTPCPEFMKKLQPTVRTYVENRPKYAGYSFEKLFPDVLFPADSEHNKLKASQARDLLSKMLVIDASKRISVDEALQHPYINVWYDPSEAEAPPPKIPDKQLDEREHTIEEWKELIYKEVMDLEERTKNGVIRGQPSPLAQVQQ
Sequence of c-Jun N-terminal kinase (Mus musculus) (Q9WTU6 whole entry, looked up): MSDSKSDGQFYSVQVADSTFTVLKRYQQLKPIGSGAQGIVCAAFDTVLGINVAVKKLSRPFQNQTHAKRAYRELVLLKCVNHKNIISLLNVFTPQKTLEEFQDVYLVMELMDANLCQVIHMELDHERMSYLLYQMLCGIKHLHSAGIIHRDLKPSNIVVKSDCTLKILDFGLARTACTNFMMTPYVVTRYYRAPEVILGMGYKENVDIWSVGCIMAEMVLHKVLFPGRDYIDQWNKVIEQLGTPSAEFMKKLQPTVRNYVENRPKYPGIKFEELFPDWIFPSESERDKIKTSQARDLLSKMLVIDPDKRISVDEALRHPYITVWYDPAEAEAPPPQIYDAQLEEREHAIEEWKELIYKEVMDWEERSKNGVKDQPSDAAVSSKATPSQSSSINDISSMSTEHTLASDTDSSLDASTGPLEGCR

[21] = Toxicity in OVX-induced bone loss C57BL/6 mouse model assessed as effect on heart morphology at 10 mg/kg, po QD for 4 weeks; format: organism-based; settings: in vivo, 672 h
[22] = Toxicity in OVX-induced bone loss C57BL/6 mouse model assessed as effect on spleen morphology at 10 mg/kg, po QD for 4 weeks; format: organism-based; settings: in vivo, 672 h, dose 10 mg/kg/day
[23] = Toxicity in OVX-induced bone loss C57BL/6 mouse model assessed as effect on lung morphology at 10 mg/kg, po QD for 4 weeks; format: organism-based; settings: in vivo, 672 h, dose 10 mg/kg/day
[24] = Toxicity in OVX-induced bone loss C57BL/6 mouse model assessed as effect on kidney morphology at 10 mg/kg, po QD for 4 weeks; format: organism-based; settings: in vivo, 672 h
[25] = Toxicity in OVX-induced bone loss C57BL/6 mouse model assessed as effect on serum ALT level at 10 mg/kg, po QD for 4 weeks; format: organism-based; settings: in vivo, 672 h, dose 10 mg/kg/day
[26] = Toxicity in OVX-induced bone loss C57BL/6 mouse model assessed as effect on serum AST level at 10 mg/kg, po QD for 4 weeks; format: organism-based; settings: in vivo, 672 h, dose 10 mg/kg/day
[27] = Toxicity in OVX-induced bone loss C57BL/6 mouse model assessed as effect on serum GLU level at 10 mg/kg, po QD for 4 weeks; format: organism-based; settings: in vivo, 672 h, dose 10 mg/kg/day
[28] = Toxicity in OVX-induced bone loss C57BL/6 mouse model assessed as effect on serum creatinine level at 10 mg/kg, po QD for 4 weeks; format: organism-based; settings: in vivo, 672 h, dose 10 mg/kg/day
[29] = Toxicity in OVX-induced bone loss C57BL/6 mouse model assessed as effect on serum TG level at 10 mg/kg, po QD for 4 weeks; format: organism-based; settings: in vivo, 672 h, dose 10 mg/kg/day
[30] = Toxicity in OVX-induced bone loss C57BL/6 mouse model assessed as effect on serum CK level at 10 mg/kg, po QD for 4 weeks; format: organism-based; settings: in vivo, 672 h, dose 10 mg/kg/day
[31] = Toxicity in OVX-induced bone loss C57BL/6 mouse model assessed as effect on serum LDH level at 10 mg/kg, po QD for 4 weeks; format: organism-based; settings: in vivo, 672 h, dose 10 mg/kg/day

C=C1CC[C@@H]2[C@](C)(CNCc3ccc(F)cc3)[C@H](O)CC[C@@]2(C)[C@@H]1/C=C/C1=CCOC1=O
100%: inhibition at 10 µM [3]
inactive: Activity [7] | Activity [11] | inhibition [18] | inhibition [19] | inhibition [20]
Non-Toxic: Activity [1] | Activity [21] | Activity [22] | Activity [23] | Activity [24] | Activity [25] | Activity [26] | Activity [27] | Activity [28] | Activity [29] | Activity [30] | Activity [31]
active: Activity [2] Dose-Dependent Effect | inhibition [4] | inhibition [5] | inhibition [6] Dose-Dependent Effect | inhibition [8] | inhibition [9] | inhibition [10] | Activity [12] | Activity [13] | Activity [14] | Activity [15] | Activity [16] | Activity [17]
